According to patent publication US20240115667A1 (priority 2020, published 2024):
pEC50: −log10 of the molar value. Like-named read-outs stand apart in the source and are kept apart here.

What was measured:
SARS-CoV-2 [1] = test: microbe, parasite or virus in culture; details: Severe acute respiratory syndrome coronavirus 2, Vero C1008, read-out: EC50, inhibition of SARS-CoV-2 induced cytotoxicity, diphenhydramine with 400 μg/ml of lactoferrin
SARS-CoV-2 [2] = details: for EC50, inhibition of SARS-CoV-2 induced cytotoxicity: Vero E6, MOI 0.2, LDH release
SARS-CoV-2 [3] = test system: SARS-CoV-2
SARS-CoV-2 [4] = format: cell-based
SARS-CoV-2 [5] = format: cell-based; details: diphenhydramine 40 μg/ml, lactoferrin 400 μg/ml; MOI 0.01; 48 h supernatant

CN(C)CCOC(c1ccccc1)c1ccccc1 [Diphenhydramine]
pEC50 (SARS-CoV-2 [1]; Vero E6, MOI 0.2): 3.73 | EC50 (SARS-CoV-2 [1]; Vero E6, MOI 0.2, LDH release): 54.2 µg/mL | Decrease of diphenhydramine EC50 (SARS-CoV-2 [2]; co-administration of 400 μg/ml of lactoferrin): 55.5% | EC50, inhibition of SARS-CoV-2 induced cytotoxicity (SARS-CoV-2 [2]; diphenhydramine alone): 122 µg/mL | EC50, inhibition of SARS-CoV-2 induced cytotoxicity (SARS-CoV-2 [2]; diphenhydramine with 400 μg/ml of lactoferrin): 54.25 µg/mL | Inhibition of SARS-CoV-2 infection in vitro (SARS-CoV-2 [3]): inhibited SARS-CoV-2 infection when administered alone | Reduction of the diphenhydramine EC50 by presence of LFN (SARS-CoV-2 [3]): 3 times | Decrease of SARS-CoV-2 induced cytotoxicity (SARS-CoV-2 [3]; 5 μg/mL DPH alone): unable to decrease SARS-CoV-2 induced cytotoxicity | Reduction in N-protein RNA (SARS-CoV-2 [4]): 32.2% | Reduction of infectious SARS-CoV-2 particle release compared to untreated H23-hACE2 cells (SARS-CoV-2 [5]): −1 log
